The values below come from patent US11076595B2, “1-(n,n-disubstituted carbamoyl) 4-(substituted sulfonyl)triazolin-5-one derivative, 4-(n,n-disubstituted carbamoyl) 1-(substituted sulfonyl)triazolin-5-one derivative, and herbicide containing said derivative as active ingredient” (HOKKO CHEMICAL INDUSTRY CO., LTD., priority 2017, dated 2021).

Common to all, as to assay type: in vivo
Assay [1] relates to Echinochloa crus-galli. The experiment in a line: Test Example 11: herbicidal effect test by soil treatment in paddy field. The following applies: 120 g/10a active ingredient, 14 days after treatment. The procedure, abridged:
(§1)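 Puddled paddy soil with N:P:K 17:17:17 fertilizer in Wagner pots; 30 seeds per species sown at 0–1 cm, flooded to about 3 cm, kept in a glass greenhouse. Water-diluted emulsifiable concentrate dripped in immediately after sowing at 120 g a.i. per 10 are. Suppression from dry weight versus untreated at 14 days.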

For assay [2], the system named is Lindernia pyxidaria. Described as above. The following applies: 120 g/10a active ingredient, 14 days after treatment. A digest of the protocol: as §1
The test system of assay [3] is Monochoria vaginalis. The description is as above. The following applies: 120 g/10a active ingredient, 14 days after treatment. A digest of the protocol: as §1
In assay [4] the test system is Scirpus juncoides. The description is as above. The following applies: 120 g/10a active ingredient, 14 days after treatment. A digest of the protocol:
as §1

Assay [5] deals with Echinochloa crus-galli. Kind of assay: Test Example 12: herbicidal effect test by treatment during growing period in paddy field. As to conditions: 120 g/10a; treatment seven days after sowing in flooded paddy pot; assessed 14 days after treatment. A digest of the protocol:
(§2)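 Read-out: weed suppression (%) = (1 − treated/untreated mean dry weight) × 100, scored 14 days after treatment with two replications. Pots held puddled paddy soil, 30 seeds per species sown 0–1 cm, flooded ~3 cm. Post-emergence dropwise water application at 7 days after sowing, 120 g a.i./10 are.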

Assay [6] deals with Lindernia pyxidaria. The assay is described as above. As to conditions: 120 g/10a; treatment seven days after sowing in flooded paddy pot; assessed 14 days after treatment. The procedure, abridged:
as §2

Assay [7] has as its system Monochoria vaginalis. The assay is described as above. The following applies: 120 g/10a; treatment seven days after sowing in flooded paddy pot; assessed 14 days after treatment. The procedure, abridged:
as §2

Assay [8] deals with Scirpus juncoides. The description is as above. As to conditions: 120 g/10a; treatment seven days after sowing in flooded paddy pot; assessed 14 days after treatment. A digest of the protocol:
as §2

For the next assay, the system named is Chenopodium album. Kind of assay: Test Example 14: herbicidal effect test by foliage treatment in upland field. As to conditions: 7 days after sowing, 120 g/10a, 14 days after treatment. How it is done: (§3) A pot having a size of 36 cm^2 was filled with field soil (alluvial soil) and after uniformly mixing the soil of the surface layer of 1 cm with 20 grains of each weed seed of crabgrass, Echinochloa crus-galli, Chenopodium album and Amaranthus viridis, the surface layer was pressed lightly. Seven Days after the sowing, an emulsifiable concentrate prepared according to Formulation Example 15 by using the compound shown in Table 12 below was diluted with water, and the water-diluted formulation was sprayed on the soil surface at a ratio of 100 liter per 10 are. The application rate of the active ingredient, by conversion, corresponded to 120 g per 10 are. Fourteen Days after the formulation treatment, the herbicidal effect was evaluated by the same criteria as in Test Example 11.

The next assay relates to crabgrass. The description is as above. As to conditions: 7 days after sowing, 120 g/10a, 14 days after treatment. How it is done: as §3
The test system of another assay is Amaranthus viridis. The description is as above. As to conditions: 7 days after sowing, 120 g/10a, 14 days after treatment. How it is done: (§4) This test was performed with two replications per one formulation concentration plot, and 14 days after the formulation treatments, the weed suppression rate (%) was determined according to the following equation (Math. 2). Weed suppression rate (%)=(1−average dry weight (g) of plants in treated plots/average dry weight (g) of plants in untreated plots)×100 [Math. 2]
as §3

In assay [9] the test system is Echinochloa crus-galli. The assay is described as above. The following applies: 7 days after sowing, 120 g/10a, 14 days after treatment. As to the method:
as §4, §3

Take `O=C(N(CC(F)(F)F)c1ccc(F)cc1F)n1cnn(S(=O)(=O)C2CC2)c1=O` [Compound 11-144]: the “Weed suppression rate (%) Echinochloa crus-galli” value in the assay on Echinochloa crus-galli [1] and in the assay with Echinochloa crus-galli [5] was 100% each time. The “Weed suppression rate (%) Lindemia pyxidaria” value in the assay with Lindernia pyxidaria [2] is reported as 90%; in the assay with Lindernia pyxidaria [6], 100%. Also, the “Weed suppression rate (%) Monochoria vaginalis” value is 80% with Monochoria vaginalis [3] and 100% in the assay on Monochoria vaginalis [7]. Besides, the “Weed suppression rate (%) Scirpus juncoides” value in the assay with Scirpus juncoides [4] and in the assay with Scirpus juncoides [8] was 100% in each case. The “herbicidal effect, Chenopodium album” value in the assay with Chenopodium album was determined as 60%. In the assay with crabgrass, the “herbicidal effect, Crabgrass” value was 80%. In the assay with Amaranthus viridis, the “herbicidal effect, Amaranthus viridis” value turned out to be 80%. In addition, in the assay with Echinochloa crus-galli [9], the “herbicidal effect, Echinochloa crus-galli” value is 80%.
In the case of `CC(C)N(C(=O)n1cnn(S(=O)(=O)C(C)C)c1=O)c1ccc(Cl)cc1F` [Compound 11-67], the “Weed suppression rate (%) Echinochloa crus-galli” value in the assay on Echinochloa crus-galli [1] and in the assay with Echinochloa crus-galli [5] was 100% throughout. Also, the “Weed suppression rate (%) Lindemia pyxidaria” value in the assay on Lindernia pyxidaria [2] and in the assay with Lindernia pyxidaria [6] was 90% in each case. The “Weed suppression rate (%) Monochoria vaginalis” value in the assay with Monochoria vaginalis [3] and in the assay with Monochoria vaginalis [7] was 90% in each case. Also, the “Weed suppression rate (%) Scirpus juncoides” value in the assay with Scirpus juncoides [4] and in the assay with Scirpus juncoides [8] was 90% in each case. In addition, the “herbicidal effect, Chenopodium album” value with Chenopodium album stood at 60%. In the assay with crabgrass, the “herbicidal effect, Crabgrass” value came to 90%. Further, the “herbicidal effect, Amaranthus viridis” value in the assay on Amaranthus viridis turned out to be 60%. The “herbicidal effect, Echinochloa crus-galli” value in the assay on Echinochloa crus-galli [9] is 90%.
Regarding `CC(C)N(C(=O)n1cnn(S(=O)(=O)C2CCCCC2)c1=O)c1cccc(F)c1F` [Compound 11-293], the “Weed suppression rate (%) Echinochloa crus-galli” value in the assay with Echinochloa crus-galli [1] and in the assay on Echinochloa crus-galli [5] was 100% throughout. Moreover, the “Weed suppression rate (%) Lindemia pyxidaria” value in the assay with Lindernia pyxidaria [2] and in the assay on Lindernia pyxidaria [6] was 100% throughout. Moreover, the “Weed suppression rate (%) Monochoria vaginalis” value in the assay on Monochoria vaginalis [3] and in the assay on Monochoria vaginalis [7] was 100% each time. The “Weed suppression rate (%) Scirpus juncoides” value in the assay on Scirpus juncoides [4] and in the assay on Scirpus juncoides [8] was 100% each time. Besides, in the assay with Chenopodium album, the “herbicidal effect, Chenopodium album” value was determined as 70%. In addition, in the assay with crabgrass, the “herbicidal effect, Crabgrass” value stood at 100%. Moreover, the “herbicidal effect, Amaranthus viridis” value in the assay on Amaranthus viridis amounted to 60%. The “herbicidal effect, Echinochloa crus-galli” value with Echinochloa crus-galli [9] came to 90%.
For `CC(C)N(C(=O)n1cnn(S(=O)(=O)c2cccs2)c1=O)c1ccccc1` [Compound 11-1011], the “Weed suppression rate (%) Echinochloa crus-galli” value in the assay with Echinochloa crus-galli [1] and in the assay with Echinochloa crus-galli [5] was 90% each time. The “Weed suppression rate (%) Lindemia pyxidaria” value with Lindernia pyxidaria [2] and in the assay on Lindernia pyxidaria [6] was 80% each time. Further, the “Weed suppression rate (%) Monochoria vaginalis” value with Monochoria vaginalis [3] and in the assay with Monochoria vaginalis [7] was 80% in each case. Besides, the “Weed suppression rate (%) Scirpus juncoides” value in the assay on Scirpus juncoides [4] and in the assay on Scirpus juncoides [8] was 90% in each case. In addition, in the assay on Chenopodium album, the “herbicidal effect, Chenopodium album” value was 80%. Besides, the “herbicidal effect, Crabgrass” value in the assay with crabgrass is on record as 90%. Further, in the assay on Amaranthus viridis, the “herbicidal effect, Amaranthus viridis” value is 90%. Further, the “herbicidal effect, Echinochloa crus-galli” value in the assay with Echinochloa crus-galli [9] came to 80%.
`CC(C)N(C(=O)n1cnn(S(=O)(=O)C(C)C)c1=O)c1ccccc1F` [Compound 11-49]: the “Weed suppression rate (%) Echinochloa crus-galli” value came to 90% in the assay with Echinochloa crus-galli [1] and 100% in the assay on Echinochloa crus-galli [5]. The “Weed suppression rate (%) Lindemia pyxidaria” value with Lindernia pyxidaria [2] turned out to be 80%; with Lindernia pyxidaria [6] it was 90%. Further, the figures for the “Weed suppression rate (%) Monochoria vaginalis” value in the assay with Monochoria vaginalis [3] and with Monochoria vaginalis [7] were 80% and 90%, respectively. The “Weed suppression rate (%) Scirpus juncoides” value in the assay with Scirpus juncoides [4] and in the assay on Scirpus juncoides [8] was 90% in each case. Further, in the assay with Chenopodium album, the “herbicidal effect, Chenopodium album” value is on record as 80%. Moreover, the “herbicidal effect, Crabgrass” value in the assay on crabgrass is on record as 90%. For the same compound, in the assay on Amaranthus viridis, the “herbicidal effect, Amaranthus viridis” value is listed as 90%. For the same compound, the “herbicidal effect, Echinochloa crus-galli” value with Echinochloa crus-galli [9] amounted to 80%.
